Reference: ChEMBL document CHEMBL4507314 (2021)
Active and inactive are the calls of the source. The rule behind the calls is not given here.

What was measured:
[1] = target: Mitogen-activated protein kinase 11 (Homo sapiens, UniProt Q15759); experiment: NanoBRET (MAPK11)
[2] = target: Mitogen-activated protein kinase 14 (Homo sapiens, UniProt Q16539); experiment: NanoBRET (MAPK14)
[3] = target: Heat shock protein beta-1 (Homo sapiens, UniProt P04792); experiment: Inhibition of HSP27 (Ser82) (Western blot)
Heat shock protein beta-1, sequence (P04792 whole entry): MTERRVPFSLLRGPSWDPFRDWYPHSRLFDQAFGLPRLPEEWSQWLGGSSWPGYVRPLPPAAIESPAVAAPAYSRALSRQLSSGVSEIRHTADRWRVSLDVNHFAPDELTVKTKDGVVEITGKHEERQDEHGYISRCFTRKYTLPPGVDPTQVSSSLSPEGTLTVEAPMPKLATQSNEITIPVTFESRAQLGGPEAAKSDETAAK

Mitogen-activated protein kinase 11, sequence (Q15759 whole entry): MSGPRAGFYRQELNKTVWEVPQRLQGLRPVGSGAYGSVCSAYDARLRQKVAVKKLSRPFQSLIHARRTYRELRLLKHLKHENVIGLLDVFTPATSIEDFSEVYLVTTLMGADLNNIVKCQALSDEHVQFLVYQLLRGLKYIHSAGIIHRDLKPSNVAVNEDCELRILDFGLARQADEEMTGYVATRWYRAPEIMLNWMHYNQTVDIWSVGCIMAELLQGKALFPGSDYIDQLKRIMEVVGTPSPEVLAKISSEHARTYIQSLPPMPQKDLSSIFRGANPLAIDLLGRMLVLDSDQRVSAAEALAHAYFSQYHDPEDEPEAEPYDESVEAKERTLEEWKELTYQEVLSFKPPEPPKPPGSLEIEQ
Mitogen-activated protein kinase 14, sequence (Q16539 whole entry): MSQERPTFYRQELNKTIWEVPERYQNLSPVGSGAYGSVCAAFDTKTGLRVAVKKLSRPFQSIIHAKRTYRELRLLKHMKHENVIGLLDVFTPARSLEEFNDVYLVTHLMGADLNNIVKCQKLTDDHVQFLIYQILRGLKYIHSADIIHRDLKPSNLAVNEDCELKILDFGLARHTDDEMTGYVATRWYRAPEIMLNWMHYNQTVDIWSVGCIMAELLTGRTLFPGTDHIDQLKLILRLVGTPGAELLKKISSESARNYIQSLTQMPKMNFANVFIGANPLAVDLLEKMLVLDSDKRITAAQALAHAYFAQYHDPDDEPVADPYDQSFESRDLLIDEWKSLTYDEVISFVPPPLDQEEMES

| IC50 [1] | IC50 [2] | IC50 [3] | SMILES |
| --- | --- | --- | --- |
| 16.2 µM (not active) | 11.3 µM (not active) | – | CN(C(=O)c1ccccc1)c1cc(N(C)c2ccc3c(c2)CCc2ccc(C(=O)NCCN4CCOCC4)cc2C3=O)ccc1F [FM-743] |
| 0.0169 µM (active) | – | < 1 µM (active) | O=C(NCCN1CCOCC1)c1ccc2c(c1)C(=O)c1ccc(Nc3ccc(F)c(NC(=O)c4ccccc4)c3)cc1CC2 [FS-694] |
